Data from patent publication US20250360113A1, “ADMINISTRATION OF DHB TO INCREASE BENEFIT OF LOSING WEIGHT OF INTERMITTENT FASTING” (NANJING NUTRABUILDING BIO-TECH CO., LTD., priority 2023, published 2025).

Tested on: ADRB3
Experiment: mRNA levels of ADRB3 from inguinal WAT by qRT-PCR
Assay type: in vivo, C57BL/6 male mice
Conditions: HFD obese mice
Description: 50 C57BL/6 male mice aged about 8 weeks, are randomly assigned to five study groups (GA, GB1, GB2, GB3, GB4) of ten mice each (one cage, […]). Mice were maintained in a pathogen free condition under a strict 12 h light/dark cycle (0600/1800 h) with 12-15 cycles/hour of air change. Mice were provided with access to respective feed and water ad libitum as per experimental conditions. Mice were housed under controlled laboratory conditions of temperature and humidity at 23±2° C. and 50±10% RH, respectively. Each study group consisted of ten animals, and treatment details of the individual study groups are given below: • Group A (GA, NC): Normal mice, maintained on normal diet (standard chow, 12% calories from fat; 23% calories from protein and 65% calories from carbohydrates) for 8 weeks, receiving neither EODF nor DHB treatment. • Group B1 (GB1): Obese mice, maintained on high fat diet (HFD, 60% calories from fat, 20% calories from protein, 20% calories from carbohydrate) for 8 weeks, receiving neither EODF nor DHB treatment. • Group B2 (GB2): Obese mice, maintained on HFD for 8 weeks, receiving only EODF and no DHB treatment. • Group B3 (GB3): Obese mice, maintained on HFD for 8 weeks, receiving only DHB treatment and no EODF. • Group B4 (GB4): Obese mice, maintained on HFD for 8 weeks, receiving DHB treatment and EODF combination. DHB was administered daily via intragastric injection (i.g.) according to a level of 70 mg/kg body weight. Mice not receiving DHB were given orally with ultrapure water. The mRNA levels of ADRB3 protein from inguinal WAT were determined by qRT-PCR.

[1] = DHB 70 mg/kg i.g. daily with or without EODF vs no DHB

COc1ccc2c(c1OC)CN1CCc3cc4c(cc3C1=C2)OCO4 [DHB, Dihydroberberine]
ADRB3 abundance (mRNA, inguinal WAT) [1]: increasing | lipolysis specifically in WAT [1]: upregulated | triggering lipolysis specifically in WAT (DHB + EODF combination vs EODF only): greater effects
